US5668134A, “Method for preventing or reducing photosensitivity and/or phototoxicity reactions to medications” (priority 1994, dated 1997)
“And” between values parts separate entries of the source, which are not always exact repeats. Equal values may be shown once. Where a name gives a salt, the structure may show the parent alone.

Legend:
Citrobacter diversus = assay: Activity in vitro and in clinical infections; type: cell-based
[1] = Pharmacokinetics of lomefloxacin in humans (general description); type: in vivo, human
[2] = system: skin of healthy volunteers; assay: Example 5: Minimum Erythema Dose with UVA radiation, morning vs evening dosing; type: in vivo, human; settings: for phototoxicity of evening versus morning dosing: UVA exposure 16 hours vs 2 hours after dosing; for DELAYED MED / IMMEDIATE MED / MED, 0 H / MED, 3 H / MED, 6 H / MED, 24 H / MED, 48 H / MED, 72 H / CHANGE BASELINE, delayed MED / CHANGE BASELINE, immediate MED: individual subjects; for MED, 0 H: 0 H post-radiation; for MED, 3 H: 3 H post-radiation; for MED, 6 H: 6 H post-radiation; for MED, 24 H: 24 H post-radiation; for MED, 48 H: 48 H post-radiation; for MED, 72 H: 72 H post-radiation; for CHANGE BASELINE, delayed MED / CHANGE BASELINE, immediate MED: baseline minus posttreatment
Method: This study describes a randomized, single site, double-blind, two treatment, two period, two sequence, cross-over clinical pharmacology study which was performed according to FDA regulations in 27 healthy normal volunteers with fair skin that could easily burn when exposed to sunlight, to assess the photosensitivity and/or phototoxicity potential of oral 400 mg lomefloxacin hydrochloride (MAXAQUIN®) administered once daily for 4 consecutive days either in the morning (morning dose group), as described hereinbelow, or in the early evening (evening dose group), as described hereinbelow. Irradiation and evaluation of irradiated sites began at 2 hours after the final morning dose of lomefloxacin HCl for the morning dosing group, and began 16 hours after the final evening dose of lomefloxacin HCl for the evening dosing group.
"Baseline MED" was defined as the lowest dose of UVA radiation alone, or UVA and UVB radiation, that produced a minimal perceptible erythema filling a 1 cm^2 patch of skin 24 hours post radiation.
"Delayed MED" was defined as the lowest dose of UVA radiation alone, or UVA and UVB radiation, that produced a minimal perceptible erythema filling a 1 cm^2 patch of skin, when testing the area 24, 48 and 72 hours post radiation.
"Immediate MED" was defined as the lowest dose producing minimal perceptible erythema filling a 1 cm^2 patch of skin when testing the area 0, 3, and 6 hours post radiation.
After all baseline procedures, including determination of baseline MEDUVA and MEDUVA+UVB values 24 hours post-radiation, were completed, all subjects started Study Day 1 of Treatment Period 1 with an evening dose of study medication, and completed this phase of the treatment regime with a morning dose of study medication on Study Day 5. Two hours after the final morning dose, and 16 hours after the last evening dose, a randomly selected site composed of six patches of skin, each with an area of one square centimeter, on the back or buttock of the subject was irradiated with incremental amounts of energy. Immediately following irradiation (0 hour), and at 3, 6, 24, 48 and 72 hours following irradiation, each skin patch area was evaluated to determine the MEDs, and assess the severity of skin reaction using a five-grade system, as described hereinbelow. The lowest of the MEDs determined at 0, 3 and 6 hours post-radiation were referred to as immediate MEDs, and the lowest of the MEDs determined at 24, 48 and 72 hours post-radiation were referred to as delayed MEDs.
The source of radiation employed was an Oriel (Santa Monica, Calif.) Xenon Arc 1000 watt solar simulator, with the following filters: WG320 filter (1 mm thick, emitting full spectrum UVA and UVB radiation), WG335 filter (3 mm thick, emitting almost exclusively UVA radiation) or UG11 filter (to filter infrared radiation).
For predrug exposure MED determination, 2 sets each with six 1 cm^2 patches on the back or buttocks were irradiated with increasing doses of UVA and UVB radiation, and UVA radiation alone, up to 7 days prior to beginning of drug treatment. With respect to UVA light source, irradiation began at 5 J/cm^2, and was increased by increments of 5 J/cm^2 using a different skin patch for each exposure. The maximum radiation dose was 30 J/cm^2. Subjects with MED greater than 30 J/cm^2 were excluded from the study. […] A different skin patch was used for each exposure.
Two hours after the administration of the last dose of Treatment Period 1 (a.m. dose), the two randomly selected sites on each subject's back or buttocks were exposed one to UVA and UVB radiation, and one to UVA radiation alone. In order to protect the subjects from excessive radiation, as well as assess the true Minimum Erythema Dose (MED), the posttreatment irradiation doses for each subject was adjusted in accordance with their pretreatment MEDs. The following table was used to determine each subject's minimum and maximum posttreatment radiation dose: […]

For `CCn1cc(C(=O)O)c(=O)c2cc(F)c(N3CCNC(C)C3)c(F)c21` (racemic) [lomefloxacin HCl, monohydrochloride salt of (±)-1-ethyl-6,8-difluoro-1,4-dihydro-7-(3-methyl-1-piperazinyl)-4-oxo-3-quinolinecarboxylic acid], the “activity against most strains” value (Citrobacter diversus) was “active against most strains”, the “drug concentrations in many body tissues and fluids versus systemic circulation” value ([1]; 400 mg oral) was “comparable to or higher than drug concentrations in systemic circulation” and the absorption rate ([1]; healthy volunteers) was “rapidly absorbed”. For the same molecule, the time to steady-state ([1]; healthy volunteers) was “by the end of the second day of dosing”, the “number of metabolites identified” value ([1]; human urine) was 5 metabolites and the dose excreted ([1]; human, feces, oral dose, read-out: unchanged drug recovered in the feces) was about 10%. The Tmax ([1]; human, serum, healthy volunteers, after dosing, read-out: time to peak serum concentrations) was 1 to 2 h, the metabolism ([1]; in vivo) was “minimally metabolized” and the route of elimination ([1]; in vivo) was “primarily eliminated by renal excretion”. For the same molecule, the oral absorption ([1]; orally-administered) was “one hundred”, the “phototoxicity of evening versus morning dosing” value [2] was “less sensitive to light” and the “phototoxicity of evening versus morning dosing” value ([2]; listed as MAXAQUIN®) was “significantly less phototoxic”. For the same molecule, the “mean change of delayed MEDUVA, a.m. versus p.m.” value ([2]; in vivo) was “statistically significant difference”, the “treatment effect on delayed MEDUVA, conservative analysis” value ([2]; in vivo) was “statistically significant treatment effect” and the “DELAYED MED” value ([2]; UVA, a.m. dosing) was 10.000 J/cm^2 and 20.000 J/cm^2 and 15.000 J/cm^2 and 30.000 J/cm^2 and 25.000 J/cm^2. The “IMMEDIATE MED” value ([2]; UVA, a.m. dosing) was 15.000 J/cm^2 and 20.000 J/cm^2 and 30.000 J/cm^2 and 25.000 J/cm^2, the “MED, 0 H” value ([2]; UVA, a.m. dosing) was 25.000 J/cm^2 and 30.000 J/cm^2 and 15.000 J/cm^2 and the “MED, 3 H” value ([2]; UVA, a.m. dosing) was 15.000 J/cm^2 and 20.000 J/cm^2 and 25.000 J/cm^2. For the same molecule, the “MED, 6 H” value ([2]; UVA, a.m. dosing) was 15.000 J/cm^2 and 20.000 J/cm^2 and 30.000 J/cm^2 and 25.000 J/cm^2, the “MED, 24 H” value ([2]; UVA, a.m. dosing) was 10.000 J/cm^2 and 20.000 J/cm^2 and 15.000 J/cm^2 and 30.000 J/cm^2 and 25.000 J/cm^2 and the “MED, 48 H” value ([2]; UVA, a.m. dosing) was 15.000 J/cm^2 and 25.000 J/cm^2 and 30.000 J/cm^2 and 20.000 J/cm^2. For the same molecule, the “MED, 72 H” value ([2]; UVA, a.m. dosing) was 15.000 J/cm^2 and 25.000 J/cm^2 and 20.000 J/cm^2 and 30.000 J/cm^2, the “CHANGE BASELINE, delayed MED” value ([2]; UVA, a.m. dosing) was 20.000 J/cm^2 and 5.000 J/cm^2 and 10.000 J/cm^2 and -5.000 J/cm^2 and the “CHANGE BASELINE, immediate MED” value ([2]; UVA, a.m. dosing) was 15.000 J/cm^2 and 5.000 J/cm^2 and 10.000 J/cm^2 and -5.000 J/cm^2. The “DELAYED MED” value ([2]; UVA, p.m. dosing) was 30.000 J/cm^2 and 25.000 J/cm^2 and 20.000 J/cm^2, the “IMMEDIATE MED” value ([2]; UVA, p.m. dosing) was 30.000 J/cm^2 and 25.000 J/cm^2 and the “MED, 0 H” value ([2]; UVA, p.m. dosing) was 30.000 J/cm^2 and 25.000 J/cm^2. The “MED, 3 H” value ([2]; UVA, p.m. dosing) was 30.000 J/cm^2, the “MED, 6 H” value ([2]; UVA, p.m. dosing) was 30.000 J/cm^2 and 25.000 J/cm^2 and the “MED, 24 H” value ([2]; UVA, p.m. dosing) was 30.000 J/cm^2 and 25.000 J/cm^2. For the same molecule, the “MED, 48 H” value ([2]; UVA, p.m. dosing) was 30.000 J/cm^2 and 20.000 J/cm^2 and 25.000 J/cm^2, the “MED, 72 H” value ([2]; UVA, p.m. dosing) was 30.000 J/cm^2 and 25.000 J/cm^2 and the “CHANGE BASELINE, delayed MED” value ([2]; UVA, p.m. dosing) was -5.000 J/cm^2 and 0.000 J/cm^2 and 5.000 J/cm^2. The “CHANGE BASELINE, immediate MED” value ([2]; UVA, p.m. dosing) was -5.000 J/cm^2 and 5.000 J/cm^2 and 0.000 J/cm^2, the “DELAYED MED, mean” value ([2]; mean, UVA, a.m. dosing) was 20.000 J/cm^2 and the “IMMEDIATE MED, mean” value ([2]; mean, UVA, a.m. dosing) was 19.615 J/cm^2. For the same molecule, the “MED, 0 H, mean” value ([2]; mean, UVA, a.m. dosing, 0 H) was 25.500 J/cm^2, the “MED, 3 H, mean” value ([2]; mean, UVA, a.m. dosing, 3 H) was 20.833 J/cm^2 and the “MED, 6 H, mean” value ([2]; mean, UVA, a.m. dosing, 6 H) was 19.615 J/cm^2. The “MED, 24 H, mean” value ([2]; mean, UVA, a.m. dosing, 24 H) was 20.385 J/cm^2, the “MED, 48 H, mean” value ([2]; mean, UVA, a.m. dosing, 48 H) was 22.692 J/cm^2 and the “MED, 72 H, mean” value ([2]; mean, UVA, a.m. dosing, 72 H) was 23.077 J/cm^2.
